Values of other authors as cited in article PMC3501146 (ACS Chemical Biology, 2012).

Test system: Lactococcus lactis subsp. cremoris HP
Conditions: indicator strain L. lactis subsp. cremoris HP

Substance: nisin (ITSISLCTPGCKTGALMGCNMKTATCHCSIHVSK; not fully specified; Lantibiotic nisin-A; UniProt P13068 24-57, looked up)
- MIC against L. lactis subsp. cremoris HP (nisin): 0.032 µM
